The values below come from the NIST ThermoML archive (doi:10.1021/acs.jced.8b00080).

Numbers after ± are expanded uncertainties.

A short description of this series: activity coefficient (dimensionless); of the first substance listed, at infinite dilution; xn = mol fraction of the nth substance listed. Conditions: 101.33 kPa, Liquid, Chromatography, x1 = 0.

Take `CC#N` [acetonitrile] + C[n+]1ccn(CCO)c1.O=S(=O)([O-])C(F)(F)C(F)(F)C(F)(F)C(F)(F)F: the activity coefficient (303 K) amounted to 0.99 ± 0.08; the activity coefficient (313 K) is 0.97 ± 0.08; the activity coefficient (323 K) was 0.93 ± 0.08; the activity coefficient (333 K) worked out at 0.9 ± 0.08; the activity coefficient (343 K) came out at 0.87 ± 0.08; the activity coefficient (353 K) worked out at 0.84 ± 0.08.

As to `C#CCCCCCC` [1-octyne] + C[n+]1ccn(CCO)c1.O=S(=O)([O-])C(F)(F)C(F)(F)C(F)(F)C(F)(F)F, the activity coefficient runs as follows: (303 K) 26.2 ± 0.94; (313 K) 23.8 ± 0.85; (323 K) 21.2 ± 0.76; (333 K) 19.1 ± 0.69; (343 K) 16.9 ± 0.61; (353 K) 14.8 ± 0.53.

On to `ClCCl` [dichloromethane] + C[n+]1ccn(CCO)c1.O=S(=O)([O-])C(F)(F)C(F)(F)C(F)(F)C(F)(F)F, for which the activity coefficient by setting is: (303 K) 2.14 ± 0.11; (313 K) 1.99 ± 0.1; (323 K) 1.85 ± 0.1; (333 K) 1.69 ± 0.09; (343 K) 1.54 ± 0.09; (353 K) 1.45 ± 0.09.

For the molecule `CC(C)=O` [acetone] + C[n+]1ccn(CCO)c1.O=S(=O)([O-])C(F)(F)C(F)(F)C(F)(F)C(F)(F)F, the activity coefficient reads like this: (303 K) 0.93 ± 0.08; (313 K) 0.91 ± 0.08; (323 K) 0.9 ± 0.08; (333 K) 0.88 ± 0.08; (343 K) 0.85 ± 0.08; (353 K) 0.83 ± 0.08.
